Assay results: patent US8609810B2, “Methylglyoxal-scavenging compounds and their use for the prevention and treatment of pain and/or hyperalgesia” (Ruprecht-Karls-Universitat Heidelberg, priority 2009, dated 2013)
Each block holds one compound with its values, some of them ahead of it. Where no end group is shown, it is not given here.

Tests used:
healthy wild-type mice = experiment: Exogenous methylglyoxal induces thermal hyperalgesia in vivo (hot plate)
Method: Hyperalgesia was studied using the hot-plate assay with an electronically controlled hot-plate analgesia meter (Columbus Instructments, Columbus, Ohio) at 50° C.. Each mouse was removed from the hot plate when a jumping escape response occurred or hind paws were licked, or after a maximal cut-off time of 60 seconds. […] Three measurements were taken per animal at each of the specified time points and averaged. The difference in latency times between control and treated animals, was calculated as a measure of hyperalgesia. Healthy wild-type mice (Male; 10-12 weeks) were treated with various concentrations of methylglyoxal (0.7 μM-700 μM) by intravenous injection as 0.9% NaCl solution. Control groups were injected with 0.9% NaCl solution. After 3 hrs incubation time, hyperalgesia was assessed.

[1] = Plasma methylglyoxal measurement after i.v. injection of MG (HPLC); assay type: in vivo, mice; conditions: male, wild-type, mouse, iv, 5 μg MG i.v., within 10 min, read-out: plasma MG levels
Method: (B) 5 μg ([…]) MG was administered by i. v. injection as 0.9% NaCl solution to male healthy wild-type mice (10-12 weeks old) and MG-plasma concentrations were determined by HPLC at time point Oh, 10 min, 30 min, 1 h and 3 h. Data represent mean±SD (n=3 per time point).
(§1) The concentration of methylglyoxal in mouse plasma samples was determined by derivatization with 1,2-diamino-4,5-dimethoxybenezene using a previously described method. Blood samples were drawn into EDTA containing tubes from the retrobulbar vessels at time of sacrifice and centrifuged (2000 g; 5 mins). Plasma was removed and acidified with 10% TCA (0.1 ml). Samples were either analyzed immediately or stored at −80° C.

glyoxalase-I = molecular target: T1, glyoxalase-I (Mus musculus, UniProt Q9CPU0); experiment: In vivo inhibition of Glyoxalase I in healthy wild-type mice
T1 construct: Healthy wild-type mice (Male); from tissue
T1 sequence (Q9CPU0 2-184 limits assumed): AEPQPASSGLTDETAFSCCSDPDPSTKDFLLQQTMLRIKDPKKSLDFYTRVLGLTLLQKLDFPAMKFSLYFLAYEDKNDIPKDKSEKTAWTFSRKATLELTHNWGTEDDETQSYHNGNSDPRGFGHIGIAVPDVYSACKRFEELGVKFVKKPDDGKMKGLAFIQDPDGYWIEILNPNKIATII
Method: (A) Inhibition of Glyoxalase I by the cell permeable inhibitor S-p-Bromobenzylglutathione Cyclopentyl diester in male healthy wild-type mice (10-12 weeks old). Hyperalgesia was assessed by the hot plate assay at day 0 before application of the inhibitor. Thereafter, consecutive assessments of thermal hyperalgesia were made at selected time points (black circles), at which some mice also were sacrificed and plasma isolated for the determination of MG concentration (open circles). Data represent mean±SD (n=3 per time point). Different approaches were utilized to verify the hypothesized threshold-dependent effect of the MG/glyoxalase-system on hyperalgesia.
(§2) Hyperalgesia was studied using the hot-plate assay with an electronically controlled hot-plate analgesia meter (Columbus Instructments, Columbus, Ohio) at 50° C.. Each mouse was removed from the hot plate when a jumping escape response occurred or hind paws were licked, or after a maximal cut-off time of 60 seconds. […] Three measurements were taken per animal at each of the specified time points and averaged. The difference in latency times between control and treated animals, was calculated as a measure of hyperalgesia.
as §1
Healthy wild-type mice (Male; 10-12 weeks) were pretreated for 48 hrs with 50 μg/g (i.p) of the cell permeable Glyoxalase I inhibitor, S-p-Bromobenzylglutathioine Cyclopentyl diester. After 48 hrs, hyperalgesia was assessed. Mice were then treated every 2nd day for a period of 15 days, during which consecutive assessments of hyperalgesia were made. At selected time points, mice sacrificed, and plasma isolated for determination of methylglyoxal concentration.

[2] = test system: methylglyoxal-induced hyperalgesia in healthy wild-type mice; experiment: Methylglyoxal-induced hyperalgesia, hot-plate assay (in vivo scavenging of methylglyoxal); conditions: 1 mg i.p., MG 70 μM, FIG. 6A
Method: Healthy wildtype mice (10-12 weeks), were injected with 1 mg GERP (≡1.096×1015 Arg residues) or control peptide GEAP; i.p. 30 mins prior to injection with methylglyoxal (MG; 70 μM). Hyperalgesia was assessed 3 hrs after i.p injection by hot-plate assay. Data represent mean±SEM (N=10). GERP reduced methylglyoxal-induced hyperalgesia by ca. 60% in healthy wildtype mice, whereas the control peptide had no effect, showing that scavanging of methylglyoxal reduced hyperalgesia.
as §2
A synthetic peptide, GERP001, containing ten arginine residues per molecule act as an effective in vivo scavenger of methylglyoxal was designed in house and synthesized (GenWay Biotech, Inc. San Diego, Calif., USA). […] Hyperalgesia was assessed 3 hrs after administration of methylglyoxal.

[3] = test system: diabetes induced hyperalgesia in diabetic wild-type mice; experiment: Diabetes induced hyperalgesia, hot-plate assay in STZ-induced diabetic wild-type mice; assay type: in vivo
Method: Diabetic wildtype mice (Male; 18 wks) were injected with either 1 mg GERP or GEAP i.p. Following 1 day of treatment with either peptide, treatment was discontinued, after which consecutive measurements of hyperalgesia were performed to determine biological half-life of the peptide. This was determined to be ca. 80 hrs. Data represent the mean±SEM (N=10), ***P<0.0001, **P<0.001, *P<0.05, NSP>0.05 vs. GERP or GEAP control at respective time point; 000P<0.0001, NSP>0.05 vs. day 0.
Diabetes was induced by i.p. administration of STZ at 60 mg/kg, freshly dissolved in sterile sodium citrate (0.05M, pH4.5) on 6 subsequent days. Control animals received sodium citrate only. Diabetes was verified 16-25 days later by measurement of blood glucose levels in samples from the tail vein using ACCU-CHEK glucose sticks and a conventional Accutrend glucometer. In the first 2 weeks following the onset of diabetes, blood glucose was measured daily. If glucose levels occasionally recovered, an additional STZ injection was given on day 25-27. More than 90% of mice became diabetic within the first 4 weeks and were used throughout the experiment. As soon as blood glucose increased above 300 mg/dl, individual supplementation with 1-2 U Insulin Semilenta (40 U/ml) was started. Once glucose levels had stabilized, blood glucose was determined at least once a week for the first 2 months, and thereafter every second week. Tight blood glucose control kept individual blood glucose level stable throughout the experiments. At the end of the experiments, mice were sacrificed with CO2, and both sciatic nerves dissected, weighed and snap-frozen in liquid nitrogen.
as §2
To determine the effect of GERP on diabetes induced hyperalgesia, STZ-induced diabetic wild-type mice (Male; 18 wks) were injected intraperitioneal with either 1 mg of GERP001 or GEAP. After 24 hrs, hyperalgesia was assessed by hotplate assay.

concentration at 10 min [1]: > 800 nM
Compound: CC(=O)C=O [MG, 2-oxo-propanal]
persistence of MG-induced changes resulting in hyperalgesia (healthy wild-type mice; after MG application, data not shown): more than 3 hours
plasma MG level needed for dose-dependent hyperalgesia (threshold concentration) (healthy wild-type mice; plasma MG at 15 min after MG application): exceeded 600 nM
induction of heat hyperalgesia (healthy wild-type mice; systemic (i.v.) MG, 3 h after MG injection, hot plate): significant and dose-dependent induction of heat hyperalgesia

glyoxalase-I enzymatic activity (glyoxalase-I; 3 days after continuous inhibitor administration, injected every second day): fully inhibited
MG plasma concentration (glyoxalase-I; 6 days after initiation of treatment): exceeded 600 nM
thermal hyperalgesia (glyoxalase-I; 6 days after initiation of treatment, hot plate): significant thermal hyperalgesia
Compound: NC(CCC(=O)NC(CSCc1ccc(Br)cc1)C(=O)NCC(=O)OC1CCCC1)C(=O)OC1CCCC1 (stereo not drawn) [S-p-Bromobenzylglutathione Cyclopentyl diester]

Compound: GEAP: a control peptide in which the arginine residues were substituted for alanine (HHHHHHGGGGGEPGEPGEPGEPGEPGEPGEPGEPGEPGEP; GEAP motif containing peptide)
effect on thermal hyperalgesia in MG-treated healthy wild-type mice [2]: no effect
effect on thermal hyperalgesia in diabetic mice ([3]; mice after 8 weeks of diabetes with manifest hyperalgesia, 1 mg i.p., FIG. 6C): no effect

Compound: HHHHHHGGGGGERPGERPGERPGERPGERPGERPGERPGERPGERPGERP [GERP001]
physiological / biological effective half-life ([3]; diabetic mice, 1 mg i.p., after treatment discontinued, regression analysis, linear decay model): ca. 80 hrs
biological effective half-life (preliminary experiments) ([3]; preliminary experiments, data fitted to an exponential decay (R2=0.9734)): ca. 13 hrs
half-life of the effect of a single injection ([3]; single injection (1 mg)): 80 h
